Laboratory results as given in patent US20160137630A1, “INDUCTION OF GATA2 BY HDAC1 AND HDAC2 INHIBITORS” (ACETYLON PHARMACEUTICALS, INC., priority 2014, published 2016).
“Also recorded” adds a separate entry of the source. Like-named read-outs stand apart in the source and are kept apart here.

Experiments:
MV4-11 cells = experiment: GATA2 expression in MV4-11 AML cell line; format: cell-based; conditions: 1 uM single agent, 48 h and 72 h
Method: FIG. 24. […] (A-B) MV4-11 cells were plated at 2×10^5 cells/ml at indicated doses for 48 h and 72 h. RNA was prepared and analyzed for GATA2 and GAPDH as internal control.

HDAC1 = HDAC1 (Homo sapiens, UniProt Q13547); experiment: in vitro biochemical HDAC inhibition assay; conditions: read-out: IC50 HDAC1
HDAC2 = HDAC2 (Homo sapiens, UniProt Q92769); experiment: in vitro biochemical HDAC inhibition assay; conditions: read-out: IC50 HDAC2
HDAC3 = HDAC3 (Homo sapiens, UniProt O15379); experiment: in vitro biochemical HDAC inhibition assay; conditions: read-out: IC50 HDAC3
Gata2 mRNA = experiment: induction of Gata2 mRNA in erythroid progenitors by HDAC1,2 inhibitors; format: cell-based, human; conditions: erythroid progenitors differentiated 3 days with compound; FIG. 2A-C
Description: Human bone marrow derived CD34+ cells were expanded for 7 days as described by Sankaran et al., Science, vol. 322(5909), pp. 1839-42 (2008). Cells were then differentiated, in the presence of the indicated compound (i.e., Compounds 001, Compound Y, Compound 2005, Compound 2004, Compound 2003), for 3 days in media supporting erythropoiesis (Hu et al., “Isolation and functional characterization of human erythroblasts at distinct stages: implications for understanding of normal and disordered erythropoiesis in vivo”, Blood, vol. 121(16), pp. 3246-53 ([…])). FIG. 2A, FIG. 2B, and FIG. 2C each represents an experimental series performed on different days and with different donor cells.

HDAC6 = HDAC6 (Homo sapiens, UniProt Q9UBN7); experiment: in vitro biochemical HDAC inhibition assay
HDACs 4-9 = experiment: in vitro HDAC inhibition assay, HDACs 4-9; format: biochemical; conditions: concentrations as high as 20 μM; FIG. 20
HbG mRNA = experiment: % HbG mRNA induction in 2-phase culture systems CS1 and CS2; format: cell-based, human
Description: Then, the cells were differentiated by exposure to either vehicle (control) or Compound 001. RNA samples of HbG were taken at days 0, 3, 5, and 8. […] Staining cells with a FITC-conjugated anti-HbF antibody and flow cytometry was used to measure induction of fetal hemoglobin.

[1] = test system: human bone marrow-derived CD34+ cells; experiment: viability of expanded CD34+ cells; format: cell-based; conditions: Homo sapiens, 48 h; 2 days of treatment; FIG. 19A
Description: This possibility was first tested by measuring the viability of expanded human bone marrow-derived CD34+ cells, composed of primitive and more differentiated hematopoietic progenitors of multiple lineages, following 2 days of treatment with compound.

[2] = test system: Human CD34+ bone marrow cells; experiment: erythroid maturation in CS1 by CD71/GlyA flow cytometry; format: cell-based; conditions: 1 μM, first 5 days
Description: To investigate the effects of HDAC inhibition on later stages of erythroid maturation, differentiation in CS1 was followed by flow cytometry using fluorescent antibodies against the transferrin receptor (CD71) and glycophorin A (GlyA). […] The majority of vehicle control cells continued to differentiate, becoming CD71^posGlyA^pos by day 8. […] CD71^posGlyA^mid cells are equivalent to proerythroblasts (ProE), while CD71^posGlyA^pos cells include the more differentiated basophilic and polychromatic erythroblasts.

Chain of HDAC1 (Q13547 whole entry): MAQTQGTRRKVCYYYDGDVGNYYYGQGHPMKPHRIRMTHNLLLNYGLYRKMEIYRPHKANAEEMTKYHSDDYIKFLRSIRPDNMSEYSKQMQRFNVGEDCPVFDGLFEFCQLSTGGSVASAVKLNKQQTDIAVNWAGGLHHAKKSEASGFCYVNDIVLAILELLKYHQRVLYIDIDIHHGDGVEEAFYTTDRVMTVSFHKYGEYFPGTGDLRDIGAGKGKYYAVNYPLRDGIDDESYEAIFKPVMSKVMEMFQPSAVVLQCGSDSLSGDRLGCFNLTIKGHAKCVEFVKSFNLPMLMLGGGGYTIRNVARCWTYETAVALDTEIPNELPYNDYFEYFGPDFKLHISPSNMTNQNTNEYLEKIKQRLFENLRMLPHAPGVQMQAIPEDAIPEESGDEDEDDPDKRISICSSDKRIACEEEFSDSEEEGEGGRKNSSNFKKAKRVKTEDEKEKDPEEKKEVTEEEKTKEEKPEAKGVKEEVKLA
Chain of HDAC3 (O15379 whole entry): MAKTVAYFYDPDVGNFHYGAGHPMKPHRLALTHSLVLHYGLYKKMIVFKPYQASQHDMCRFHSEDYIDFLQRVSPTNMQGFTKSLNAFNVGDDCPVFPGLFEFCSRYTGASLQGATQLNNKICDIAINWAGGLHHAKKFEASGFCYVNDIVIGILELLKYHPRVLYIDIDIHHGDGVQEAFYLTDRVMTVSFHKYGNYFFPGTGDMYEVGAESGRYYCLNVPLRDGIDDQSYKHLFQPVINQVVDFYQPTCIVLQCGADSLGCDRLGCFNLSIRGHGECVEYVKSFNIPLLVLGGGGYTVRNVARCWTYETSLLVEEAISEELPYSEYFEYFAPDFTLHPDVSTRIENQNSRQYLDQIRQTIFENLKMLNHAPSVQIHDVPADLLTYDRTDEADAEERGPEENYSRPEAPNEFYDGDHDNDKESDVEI
Chain of HDAC3 (Q9Y618 395-489 partner limits assumed): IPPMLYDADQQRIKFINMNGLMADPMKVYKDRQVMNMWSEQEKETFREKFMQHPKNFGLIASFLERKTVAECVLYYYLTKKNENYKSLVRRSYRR
Chain of HDAC2 (Q92769 whole entry): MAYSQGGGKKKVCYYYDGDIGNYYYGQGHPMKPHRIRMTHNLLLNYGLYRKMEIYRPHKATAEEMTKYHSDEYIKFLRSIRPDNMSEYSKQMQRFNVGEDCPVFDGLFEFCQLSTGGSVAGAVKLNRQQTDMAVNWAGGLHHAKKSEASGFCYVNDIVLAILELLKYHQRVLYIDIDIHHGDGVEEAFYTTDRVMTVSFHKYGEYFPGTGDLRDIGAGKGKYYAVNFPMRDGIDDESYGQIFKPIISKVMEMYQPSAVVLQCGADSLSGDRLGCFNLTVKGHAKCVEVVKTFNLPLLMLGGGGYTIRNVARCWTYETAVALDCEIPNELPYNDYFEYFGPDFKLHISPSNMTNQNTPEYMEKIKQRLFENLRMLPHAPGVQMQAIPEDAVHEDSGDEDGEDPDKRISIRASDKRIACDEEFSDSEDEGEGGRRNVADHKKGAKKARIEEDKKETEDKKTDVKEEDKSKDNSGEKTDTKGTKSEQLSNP
Chain of HDAC6 (Q9UBN7 whole entry): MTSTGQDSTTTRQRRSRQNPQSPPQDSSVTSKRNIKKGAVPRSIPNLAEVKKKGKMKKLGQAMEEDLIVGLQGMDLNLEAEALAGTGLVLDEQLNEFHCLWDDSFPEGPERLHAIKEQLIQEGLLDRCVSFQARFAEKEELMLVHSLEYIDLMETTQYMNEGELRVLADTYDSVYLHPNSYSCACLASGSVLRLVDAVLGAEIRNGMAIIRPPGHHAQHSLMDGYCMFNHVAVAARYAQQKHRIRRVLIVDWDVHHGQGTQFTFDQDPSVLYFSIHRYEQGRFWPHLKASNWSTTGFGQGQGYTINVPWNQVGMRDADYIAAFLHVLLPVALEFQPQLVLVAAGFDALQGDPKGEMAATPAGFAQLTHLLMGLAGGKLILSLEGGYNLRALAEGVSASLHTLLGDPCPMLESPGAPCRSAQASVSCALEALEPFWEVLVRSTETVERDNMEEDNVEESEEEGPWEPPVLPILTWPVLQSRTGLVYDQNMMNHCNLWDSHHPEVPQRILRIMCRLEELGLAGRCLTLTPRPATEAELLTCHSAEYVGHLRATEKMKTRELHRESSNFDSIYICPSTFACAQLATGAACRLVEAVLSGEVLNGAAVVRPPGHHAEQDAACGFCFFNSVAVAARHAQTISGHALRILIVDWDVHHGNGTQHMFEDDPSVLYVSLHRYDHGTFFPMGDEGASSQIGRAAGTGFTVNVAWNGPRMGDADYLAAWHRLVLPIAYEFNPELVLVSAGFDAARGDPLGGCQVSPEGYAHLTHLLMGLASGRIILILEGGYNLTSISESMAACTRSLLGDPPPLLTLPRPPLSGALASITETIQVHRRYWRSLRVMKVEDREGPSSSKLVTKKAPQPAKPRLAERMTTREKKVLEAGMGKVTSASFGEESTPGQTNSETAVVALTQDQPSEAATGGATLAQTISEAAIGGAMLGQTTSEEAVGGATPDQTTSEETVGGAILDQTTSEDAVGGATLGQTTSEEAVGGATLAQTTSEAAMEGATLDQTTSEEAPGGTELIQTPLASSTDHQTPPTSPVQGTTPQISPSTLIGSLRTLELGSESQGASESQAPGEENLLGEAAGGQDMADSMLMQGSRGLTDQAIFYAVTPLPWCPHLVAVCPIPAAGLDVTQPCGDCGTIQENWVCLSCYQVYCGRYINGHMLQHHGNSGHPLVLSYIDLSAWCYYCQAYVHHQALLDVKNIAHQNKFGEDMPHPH

| IC50 (HDAC1; Table 4) [nM] | IC50 (HDAC2; Table 4) [nM] | IC50 (HDAC3; Table 4) [nM] | Structure (SMILES) | Gata2 mRNA (Gata2 mRNA) | also measured |
| --- | --- | --- | --- | --- | --- |
| – | – | – | Nc1ccc(-c2cccs2)cc1NC(=O)c1ccc2c(c1)cc(C1CC1)n2CCN1CCOCC1 [Compound 005, N-(2-amino-5-(thiophen-2-yl)phenyl)-2-cyclopropyl-1-(2-morpholinoethyl)-1H-indole-5-carboxamide] | – | GATA2 level (MV4-11 cells): induced GATA2 level |
| 14.9 | 55.5 | 284 | Nc1ccc(-c2cccs2)cc1NC(=O)c1cnc(NC2CCN(C(=O)N3CCOCC3)CC2)nc1 [Compound 2007] | induction of Gata2 mRNA | – |
| – | – | – | Nc1ccc(-c2ccncc2)cc1NC(=O)c1ccc2c(c1)cc(C1CC1)n2CCN1CCOCC1 [Compound Y] | induction of Gata2 mRNA | – |
| 10.2 | 14.1 | 673 | CC1(Nc2ncc(C(=O)Nc3cc(-c4cccs4)ccc3N)cn2)CCN(C(=O)N2CCCC2)CC1 [Compound 2005] | induction of Gata2 mRNA | – |
| 85 | 79.1 | 491 | CN1CCN(c2ccc(C(=O)Nc3cc(-c4ccccc4)ccc3N)cc2C2CC2)CC1 [Compound 2003] | induction of Gata2 mRNA | – |
| 27.3 | 32.3 | 218 | Nc1ccc(-c2ccccc2)cc1NC(=O)/C=C/c1ccc(N2CCNCC2)c(C2CC2)c1 [Compound 2001] | induction of Gata2 mRNA | – |
| – | – | – | CC(C)[C@@H](C(=O)N1CCC(C)(Nc2ncc(C(=O)NO)cn2)CC1)c1ccccc1 [Compound 1027] | – | IC50 (HDAC1; Table 3): 130 nM; IC50 (HDAC2; Table 3): 103 nM; IC50 (HDAC3; Table 3): 422 nM; IC50 (HDAC6): 12 nM |
| 12 | 16.8 | 511 | CC1(Nc2ccc(C(=O)Nc3cc(-c4ccncc4)ccc3N)cc2)CCN(C(=O)N2CCOCC2)CC1 [Compound 2010] | induction of Gata2 mRNA | – |
| – | – | – | Nc1ncn([C@@H]2O[C@H](CO)[C@@H](O)[C@H]2O)c(=O)n1 [Azacitidine, azacitidine, reference compound] | – | GATA2 level (MV4-11 cells): induced GATA2 level |
| 11.2 | 8.9 | 207 | Nc1ccc(-c2cccs2)cc1NC(=O)c1ccc(N2CCNCC2)cc1C1CC1 [Compound 2004] | induction of Gata2 mRNA | – |
| – | – | – | Nc1ccccc1NC(=O)c1ccc(CNC(=O)OCc2cccnc2)cc1 [Entinostat, reference compound] | – | inhibition of HDACs 4-9 (HDACs 4-9): negligible inhibitory activity; also recorded: no inhibition; % HbG (HbG mRNA; 1 μM, increased from 10%): 46%; induction in % HbG (HbG mRNA; differentiation phase, both culture systems, FIG. 10B, 21A-C): dose- and time-dependent induction; IC50 [1]: 3000 nM; erythroid differentiation (CD71/GlyA) [2]: differentiated normally |
| 14 | 21.9 | 136 | Nc1ccc(-c2cccs2)cc1NC(=O)/C=C/c1ccc(N2CCNCC2)c(C2CC2)c1 [Compound 2002] | induction of Gata2 mRNA | – |
| 7.27 | 25.9 | 195 | CC1(Nc2ncc(C(=O)Nc3cc(-c4cccs4)ccc3N)cn2)CCN(C(=O)N2CCNCC2)CC1 [Compound 2008] | induction of Gata2 mRNA | – |
| – | – | – | O=C(NO)c1cnc(NC2(c3ccccc3)CCN(C(=O)Nc3ccc(Cl)c(Cl)c3)CC2)nc1 [Compound 1011] | – | IC50 (HDAC1; Table 3): 110 nM; IC50 (HDAC2; Table 3): 177 nM; IC50 (HDAC3; Table 3): 2160 nM; IC50 (HDAC6; read-out: IC50 HDAC6, Table 3): 14 nM |
